# Measurements as given in US20100004259A1, “Tartrate Salt of (7S)-7-[(5-Fluoro-2-Methyl-Benzyl)oxy]-2-[(2R)-2-Methylpiperazin-1-YL]-6,7-Dihydro-5H-Cyclopenta[B]Pyridine” (Pfizer Inc., priority 2006, published 2010).
# What was measured:
# [1] = hygroscopicity by dynamic vapor sorption; format: physicochemical
# Protocol: Hygroscopicity was assessed using a dynamic vapor sorption technique in which an accurately weighed sample is subjected to progressively changing water vapor pressure while simultaneously recording the weight change. The experiment was conducted isothermally at 25° C.
# Less than 0.5% increase in weight was detected at 90±2% relative humidity during an isothermal (25.1±0.1° C.) moisture sorption analysis conducted from approximately 1% to 90% (±2%) humidity. […] The amount of water vapor sorption may vary depending on the particle size and surface area of sample.
# 5HT2c [2] = molecular target: T1, 5HT2c (Homo sapiens, UniProt P28335); experiment: receptor binding assay at human 5HT2c receptor; details: an amorphous salt of Formula I was tested
# T1 sequence (P28335 33-458): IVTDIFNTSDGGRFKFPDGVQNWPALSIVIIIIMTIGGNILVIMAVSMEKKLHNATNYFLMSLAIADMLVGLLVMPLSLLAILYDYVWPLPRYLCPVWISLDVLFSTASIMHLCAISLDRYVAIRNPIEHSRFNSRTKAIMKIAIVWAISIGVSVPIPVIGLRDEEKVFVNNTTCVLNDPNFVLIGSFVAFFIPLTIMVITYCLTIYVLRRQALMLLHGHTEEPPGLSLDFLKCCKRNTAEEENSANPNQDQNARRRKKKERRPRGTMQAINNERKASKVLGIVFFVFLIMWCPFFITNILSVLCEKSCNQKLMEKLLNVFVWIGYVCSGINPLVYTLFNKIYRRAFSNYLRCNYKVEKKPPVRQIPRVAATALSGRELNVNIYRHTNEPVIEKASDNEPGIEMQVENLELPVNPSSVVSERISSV
# Protocol: (§1) An amorphous salt of Formula I was tested in accordance with the binding assay procedures at human receptors provided in U.S. application Ser. No. 11/395,327, and the following receptor binding data for the compound of Formula I was obtained: […]
# 5HT2a [3] = molecular target: T2, 5HT2a (Homo sapiens, UniProt P28223); experiment: receptor binding assay at human 5HT2a receptor; details: an amorphous salt of Formula I was tested
# T2 sequence (P28223 whole entry): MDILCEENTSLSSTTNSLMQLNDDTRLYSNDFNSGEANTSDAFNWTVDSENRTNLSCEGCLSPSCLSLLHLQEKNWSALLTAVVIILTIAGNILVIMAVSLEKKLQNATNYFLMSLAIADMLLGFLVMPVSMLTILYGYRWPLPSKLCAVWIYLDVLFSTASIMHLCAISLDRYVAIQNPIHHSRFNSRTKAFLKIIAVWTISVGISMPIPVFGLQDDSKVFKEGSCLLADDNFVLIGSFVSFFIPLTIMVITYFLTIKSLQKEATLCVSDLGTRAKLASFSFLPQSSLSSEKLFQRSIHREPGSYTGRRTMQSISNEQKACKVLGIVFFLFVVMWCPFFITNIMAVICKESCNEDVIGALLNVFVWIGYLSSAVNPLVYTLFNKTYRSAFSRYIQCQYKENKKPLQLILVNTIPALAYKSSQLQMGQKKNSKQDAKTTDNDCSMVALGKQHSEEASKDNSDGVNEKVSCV
# 5HT2b [4] = molecular target: T3, 5HT2b (Homo sapiens, UniProt P41595); experiment: receptor binding assay at human 5HT2b receptor; details: an amorphous salt of Formula I was tested
# T3 sequence (P41595 whole entry): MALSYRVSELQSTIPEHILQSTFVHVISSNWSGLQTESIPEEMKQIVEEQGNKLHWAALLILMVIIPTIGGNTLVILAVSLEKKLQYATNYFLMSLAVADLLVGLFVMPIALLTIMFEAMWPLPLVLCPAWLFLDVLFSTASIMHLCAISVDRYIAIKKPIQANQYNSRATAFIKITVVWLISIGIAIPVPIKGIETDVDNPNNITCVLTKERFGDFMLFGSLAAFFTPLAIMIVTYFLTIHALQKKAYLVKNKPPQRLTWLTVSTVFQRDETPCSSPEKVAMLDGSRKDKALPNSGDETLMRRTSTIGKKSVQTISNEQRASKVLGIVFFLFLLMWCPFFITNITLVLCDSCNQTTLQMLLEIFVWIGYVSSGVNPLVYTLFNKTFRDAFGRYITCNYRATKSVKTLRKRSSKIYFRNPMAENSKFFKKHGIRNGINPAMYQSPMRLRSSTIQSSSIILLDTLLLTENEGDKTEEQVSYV
# Protocol: as §1
# 5HT2c [5] = molecular target: T1, 5HT2c; experiment: functional activity at the 5-HT2c receptor
# From the text: (§2) Formula I of the present invention is functionally selective for 5-HT2c against 5-HT2a and 5-HT2b, by virtue of its much greater agonistic potency (lower EC50) for 5-HT2c than that observed for 5-HT2a and/or 5-HT2b or its lack of agonistic activity at 5-HT2a and/or 5-HT2b.
# 5HT2a [6] = molecular target: T2, 5HT2a; experiment: functional activity at the 5-HT2a receptor
# From the text: as §2
# 5HT2b [7] = molecular target: T3, 5HT2b; experiment: functional activity at the 5-HT2b receptor
# From the text: as §2
# [8] = cited from earlier work
# [9] = cited from earlier work; remark: listed apart in the source
compound,measurement,setting,value
"Cc1ccc(F)cc1CO[C@H]1CCc2ccc(N3CCNC[C@H]3C)nc21.O=C(O)C(O)C(O)C(=O)O [(S)-7-(5-Fluoro-2-methyl-benzyloxy)-2-((R)-2-methyl-piperazin-1-yl)-6,7-dihydro-5H-[1]pyrindine L(+)-tartrate]",increase in weight (moisture sorption),"[1]; at 90±2% relative humidity, isothermal (25.1±0.1° C.) moisture sorption from approximately 1% to 90% (±2%) humidity",Less than 0.5%
same,hygroscopicity assessment,"[1]; dynamic vapor sorption, isothermal at 25° C.",non-hygroscopic
"Cc1ccc(F)cc1CO[C@H]1CCc2ccc(N3CCNC[C@H]3C)nc21 [Formula I, (7S)-7-[(5-fluoro-2-methyl-benzyl)oxy]-2-[(2R)-2-methylpiperazin-1-yl]-6,7-dihydro-5H-cyclopenta[b]pyridine]",Ki,5HT2c [2],1.5 nM
same,Ki,5HT2a [3],4.5 nM
same,Ki,5HT2b [4],7.7 nM
same,functional activity at the 5-HT2c receptor,5HT2c [5],"potent, high affinity agonist"
same,functional activity at the 5-HT2a receptor,5HT2a [6],antagonist or weak partial agonist
same,functional activity at the 5-HT2b receptor,5HT2b [7],antagonist
"O=C1Cc2cc(CCN3CCN(c4nsc5ccccc45)CC3)c(Cl)cc2N1 [Ziprasidone, 5-[2-[4-(1,2-benzisothiazol-3-yl)piperazin-1-yl]ethyl]-6-chloroindolin-2-one]",half-life,[8]; in vivo,6 to 7 h
same,oral bioavailability,[8]; taken with food,approximately 60%
same,protein binding,[9],extensive
